{
  "source": "patent US9656962B2",
  "about": "“Ring-contracted morphinans and the use thereof” (Purdue Pharma L.P., priority 2013, dated 2017)",
  "key": {"[1]": {"target": "recombinant human kappa opioid receptor (κ) (Homo sapiens (Human), UniProt P41145)", "assay": "κ-opioid receptor radioligand binding assay ([3H]-U69,593)", "conditions": "binding affinity"}, "[2]": {"target": "human opioid receptor-like receptor (ORL-1) (Homo sapiens (Human), UniProt P41146)", "assay": "ORL-1 receptor radioligand binding assay ([3H]-nociceptin)", "conditions": "binding affinity, bound given in μM, read-out: Ki ORL-1", "experimental": "ORL-1 Receptor Binding Assay Procedure: Membranes from recombinant HEK-293 cells expressing the human opioid receptor-like receptor (ORL-1) (Perkin Elmer, Shelton, Conn.) was prepared by lysing cells in ice-cold hypotonic buffer (2.5 mM MgCl2, 50 mM HEPES, pH 7.4) (10 ml/10 cm dish) followed by homogenization with a tissue grinder/Teflon pestle. Membranes were collected by centrifugation at 30,000×g for 15 min at 4° C. and pellets resuspended in hypotonic buffer to a final concentration of 1-3 mg/ml. Protein concentrations were determined using the BioRad protein assay reagent with bovine serum albumen as standard. Aliquots of the ORL-1 receptor membranes were stored at −80° C.\nRadioligand binding assays (screening and dose-displacement) use 0.1 nM [^3H]-nociceptin (Perkin Elmer, Shelton, Conn.; 87.7 Ci/mmole) with 12 μg membrane protein in a final volume of 500 μl binding buffer (10 mM MgCl2, 1 mM EDTA, 5% DMSO, 50 mM HEPES, pH 7.4). Non-specific binding was determined in the presence of […] unlabeled nociceptin (American Peptide Company). […] Fifty μl/well scintillation cocktail (Perkin Elmer, Shelton, Conn.) was added and plates are counted in a Packard Top-Count for 1 min/well. The data from screening and dose-displacement experiments were analyzed using Microsoft Excel and the curve fitting functions in GraphPad PRISM™, v. […]"}, "μ-opioid receptor": {"target": "μ-opioid receptor (Homo sapiens (Human), UniProt P35372)", "assay": "μ-opioid receptor radioligand binding assay ([3H]-diprenorphine)", "conditions": "binding affinity", "experimental": "μ-Opioid Receptor Binding Assay Procedures: Radioligand dose-displacement binding assays for μ-opioid receptors used 0.3 nM [^3H]-diprenorphine (Perkin Elmer, Shelton, Conn.), with […] membrane protein/well in a final volume of 500 μl binding buffer (10 mM MgCl2, 1 mM EDTA, 5% DMSO, 50 mM HEPES, pH 7.4). Reactions were carried out in the absence or presence of increasing concentrations of unlabeled naloxone. All reactions were conducted in 96-deep well polypropylene plates for 2 hours at room temperature. Binding reactions were terminated by rapid filtration onto 96-well Unifilter GF/C filter plates (Perkin Elmer, Shelton, Conn.), presoaked in 0.5% polyethylenimine using a 96-well tissue harvester (Perkin Elmer, Shelton, Conn.) followed by performing three filtration washes with 500 μl of ice-cold binding buffer. Filter plates were subsequently dried at 50° C. for 2-3 hours. BetaScint scintillation cocktail (Perkin Elmer, Shelton, Conn.) was added (50 μl/well), and plates were counted using a Packard Top-Count for 1 min/well. The data were analyzed using the one-site competition curve fitting functions in GraphPad PRISM™ v. 3.0 or higher (San Diego, Calif.), or an in-house function for one-site competition curve-fitting."}},
  "data": [
    {"smiles": "NC(=O)[C@@H]1C[C@]23CCN(CC4CC4)[C@H](Cc4ccc(O)cc42)[C@]3(O)C1", "note": "[Compound 31, (2R,3aS,4R,9bS)-12-(cyclopropylmethyl)-3a,8-dihydroxy-1,2,3,3a,4,5-hexahydro-4,9b-(epiminoethano)cyclopenta-[a]naphthalene-2-carboxamide]", "values": [
      {"measurement": "Ki", "setting": "[1]", "result": "0.84 ± 0.26", "unit": "nM"},
      {"measurement": "Ki", "setting": "[2]", "result": "> 20", "unit": "µM"},
      {"measurement": "Ki", "setting": "μ-opioid receptor", "result": "10.2 ± 3.58", "unit": "nM"}
    ]}
  ]
}
